According to patent publication US12378248B2 (The United States of America, as represented by the …, priority 2018, dated 2025):

Experiments:
hA1AR = biological target: T1, hA1AR (Homo sapiens, UniProt P30542); experiment: Radioligand binding in membranes of CHO cells expressing hA1AR, [3H]N6-R-phenylisopropyladenosine; conditions: read-out: A1AR % inhibition or Ki; for Ki: (h)
T1 construct: expressed in transfected cells; host or cells: CHO
T1 sequence (P30542 1-326): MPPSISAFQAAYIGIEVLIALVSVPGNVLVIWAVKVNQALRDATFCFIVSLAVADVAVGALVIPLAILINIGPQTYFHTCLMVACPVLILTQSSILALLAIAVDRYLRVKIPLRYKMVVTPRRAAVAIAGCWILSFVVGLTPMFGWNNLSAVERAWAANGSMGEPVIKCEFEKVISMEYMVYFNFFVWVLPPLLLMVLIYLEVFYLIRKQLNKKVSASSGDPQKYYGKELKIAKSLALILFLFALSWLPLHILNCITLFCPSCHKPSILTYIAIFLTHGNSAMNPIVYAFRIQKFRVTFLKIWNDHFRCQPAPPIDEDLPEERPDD

hA2AAR = biological target: T2, hA2AAR (Homo sapiens, UniProt P29274); experiment: Radioligand binding in membranes of HEK293 cells expressing hA2AAR; conditions: read-out: A2AAR % inhibition; for Ki: (h), values without % sign (Ki)
T2 construct: expressed in transfected cells; host or cells: HEK293
T2 sequence (P29274 whole entry): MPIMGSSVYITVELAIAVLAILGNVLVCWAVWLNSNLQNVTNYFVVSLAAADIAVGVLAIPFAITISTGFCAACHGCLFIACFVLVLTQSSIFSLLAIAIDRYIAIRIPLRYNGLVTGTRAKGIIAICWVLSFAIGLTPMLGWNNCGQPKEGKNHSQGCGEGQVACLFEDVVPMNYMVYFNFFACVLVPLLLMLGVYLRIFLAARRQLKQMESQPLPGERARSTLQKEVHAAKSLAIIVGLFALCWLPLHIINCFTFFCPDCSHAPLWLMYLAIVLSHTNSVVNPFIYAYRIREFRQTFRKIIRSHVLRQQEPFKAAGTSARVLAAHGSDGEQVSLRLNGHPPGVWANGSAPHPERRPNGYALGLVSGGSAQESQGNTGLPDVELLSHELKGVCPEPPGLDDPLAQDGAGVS

hA3AR = biological target: T3, hA3AR (Homo sapiens, UniProt P0DMS8); experiment: Radioligand binding in membranes of CHO cells expressing hA3AR; conditions: read-out: A3AR % inhibition or Ki; for Ki: (h)
T3 construct: expressed in transfected cells; host or cells: CHO
T3 sequence (P0DMS8 1-318): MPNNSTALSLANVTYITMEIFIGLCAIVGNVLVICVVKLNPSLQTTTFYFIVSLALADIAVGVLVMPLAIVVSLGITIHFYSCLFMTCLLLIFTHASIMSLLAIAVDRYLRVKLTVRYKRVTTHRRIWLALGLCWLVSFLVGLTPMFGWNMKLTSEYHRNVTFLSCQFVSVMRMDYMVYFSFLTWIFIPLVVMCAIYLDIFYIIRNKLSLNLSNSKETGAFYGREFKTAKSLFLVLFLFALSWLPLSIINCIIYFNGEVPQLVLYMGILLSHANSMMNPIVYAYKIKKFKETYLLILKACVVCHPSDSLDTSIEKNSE

[1] = biological target: TSPO (translocator protein) (UniProt P30536); experiment: Off-target interaction determined by the PDSP; type: binding, human; conditions: read-out: Off-target, receptor (h, unless noted) (Ki, μM): TSPO
sigma receptor σ1 = sigma receptor σ1 (Homo sapiens, UniProt Q99720); experiment: Off-target interaction determined by the PDSP; type: binding; conditions: read-out: Off-target, receptor (h, unless noted) (Ki, μM): σ1
Sequence of sigma receptor σ1 (Q99720 whole entry): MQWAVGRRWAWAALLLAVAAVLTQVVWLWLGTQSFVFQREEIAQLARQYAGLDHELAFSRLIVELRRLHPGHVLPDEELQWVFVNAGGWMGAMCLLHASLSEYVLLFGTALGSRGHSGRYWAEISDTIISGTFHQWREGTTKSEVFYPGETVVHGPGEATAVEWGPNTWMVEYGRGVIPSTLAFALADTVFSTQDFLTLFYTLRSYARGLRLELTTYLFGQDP

sigma receptor σ2 = sigma receptor σ2 (UniProt Q5BJF2); experiment: Off-target interaction determined by the PDSP; type: binding, human; conditions: read-out: Off-target, receptor (h, unless noted) (Ki, μM): σ2
mA1AR = biological target: T4, mA1AR (Mus musculus, UniProt Q60612); experiment: Adenosine receptor binding, mA1AR; conditions: (m); Ki; read-out: A1AR % inhibition or Ki (converted)
T4 sequence (Q60612 1-326): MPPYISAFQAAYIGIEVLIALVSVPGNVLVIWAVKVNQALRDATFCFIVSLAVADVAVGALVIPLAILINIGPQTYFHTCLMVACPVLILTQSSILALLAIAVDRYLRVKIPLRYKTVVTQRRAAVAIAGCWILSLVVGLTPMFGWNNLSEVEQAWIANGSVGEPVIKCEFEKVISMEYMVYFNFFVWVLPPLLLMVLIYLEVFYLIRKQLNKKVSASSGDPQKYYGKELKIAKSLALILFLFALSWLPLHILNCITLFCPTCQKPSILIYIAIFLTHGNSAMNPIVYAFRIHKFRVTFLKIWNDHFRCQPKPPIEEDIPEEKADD

mA2AAR = mA2AAR (Mus musculus, UniProt Q60613); experiment: Adenosine receptor binding, mA2AAR; conditions: read-out: A2AAR % inhibition (converted)
Sequence of mA2AAR (Q60613 whole entry): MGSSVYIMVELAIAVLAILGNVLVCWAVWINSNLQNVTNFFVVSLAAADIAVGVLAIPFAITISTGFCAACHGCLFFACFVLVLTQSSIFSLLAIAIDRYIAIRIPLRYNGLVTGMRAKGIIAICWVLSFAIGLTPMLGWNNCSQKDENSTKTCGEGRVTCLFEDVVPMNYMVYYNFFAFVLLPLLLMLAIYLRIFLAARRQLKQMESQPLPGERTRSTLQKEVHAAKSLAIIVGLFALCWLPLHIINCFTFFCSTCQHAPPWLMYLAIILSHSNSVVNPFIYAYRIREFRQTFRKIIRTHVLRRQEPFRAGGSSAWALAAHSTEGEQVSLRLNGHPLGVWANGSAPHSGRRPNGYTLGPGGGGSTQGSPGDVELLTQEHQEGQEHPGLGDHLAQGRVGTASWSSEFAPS

mA3AR = biological target: T5, mA3AR (Mus musculus, UniProt Q61618); experiment: Adenosine receptor binding, mA3AR; conditions: (m); Ki; read-out: A3AR % inhibition or Ki (converted)
T5 sequence (Q61618 1-319): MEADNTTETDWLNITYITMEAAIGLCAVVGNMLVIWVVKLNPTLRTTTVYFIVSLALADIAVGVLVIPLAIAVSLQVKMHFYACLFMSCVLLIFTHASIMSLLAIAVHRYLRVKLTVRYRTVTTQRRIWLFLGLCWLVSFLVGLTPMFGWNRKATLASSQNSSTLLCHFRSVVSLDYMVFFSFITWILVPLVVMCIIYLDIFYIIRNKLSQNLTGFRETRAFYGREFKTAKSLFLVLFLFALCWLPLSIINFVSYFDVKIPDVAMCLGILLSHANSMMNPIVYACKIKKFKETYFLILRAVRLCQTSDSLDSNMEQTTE

serotonin receptor 5HT2C = biological target: T6, serotonin receptor 5HT2C (Homo sapiens, UniProt P28335); experiment: Off-target interaction determined by the PDSP; type: binding; conditions: read-out: Off-target, receptor (h, unless noted) (Ki, μM): 5HT2C
T6 sequence (P28335 33-458): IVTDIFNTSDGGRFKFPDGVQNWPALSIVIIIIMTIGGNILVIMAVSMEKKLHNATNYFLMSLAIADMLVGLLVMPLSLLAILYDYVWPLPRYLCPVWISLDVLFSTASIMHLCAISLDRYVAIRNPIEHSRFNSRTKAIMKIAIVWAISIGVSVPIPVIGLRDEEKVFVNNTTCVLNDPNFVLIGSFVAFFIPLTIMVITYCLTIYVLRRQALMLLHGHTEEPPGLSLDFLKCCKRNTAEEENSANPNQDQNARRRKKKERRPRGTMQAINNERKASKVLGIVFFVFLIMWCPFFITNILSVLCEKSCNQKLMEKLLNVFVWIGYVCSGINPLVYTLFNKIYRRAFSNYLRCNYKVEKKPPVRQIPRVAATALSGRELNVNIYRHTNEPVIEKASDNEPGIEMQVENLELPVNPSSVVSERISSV

serotonin receptor 5HT2B = serotonin receptor 5HT2B (Homo sapiens, UniProt P41595); experiment: Off-target interaction determined by the PDSP; type: binding; conditions: read-out: Off-target, receptor (h, unless noted) (Ki, μM): 5HT2B
Sequence of serotonin receptor 5HT2B (P41595 whole entry): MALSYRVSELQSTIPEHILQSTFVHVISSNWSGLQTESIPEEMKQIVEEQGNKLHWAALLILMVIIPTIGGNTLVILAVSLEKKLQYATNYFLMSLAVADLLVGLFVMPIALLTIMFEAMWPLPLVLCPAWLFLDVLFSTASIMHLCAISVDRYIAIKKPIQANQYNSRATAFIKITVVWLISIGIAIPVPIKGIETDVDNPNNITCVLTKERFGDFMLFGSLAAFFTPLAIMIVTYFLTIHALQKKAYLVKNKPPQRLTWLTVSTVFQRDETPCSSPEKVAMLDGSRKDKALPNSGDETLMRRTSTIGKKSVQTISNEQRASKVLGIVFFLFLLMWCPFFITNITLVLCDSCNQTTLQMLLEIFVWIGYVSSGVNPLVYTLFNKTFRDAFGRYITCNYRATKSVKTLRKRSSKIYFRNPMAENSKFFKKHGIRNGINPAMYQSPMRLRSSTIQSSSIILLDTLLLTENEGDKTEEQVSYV

Row | SMILES | Ki (hA1AR) [µM] | Ki (hA2AAR) [µM] | Ki (hA3AR) [µM] | inhibition at 10 µM (hA2AAR) [%] | Ki (serotonin receptor 5HT2C) [µM] | Ki (serotonin receptor 5HT2B) [µM] | also measured
1 | Nc1ncnc2c1ncn2[C@@H]1O[C@H](C(=O)NCCO)[C@@H](O)[C@H]1O [Compound 18, reference compound] | 0.0128 | 0.505 ± 0.03 | 9.45 | – | – | – | –
2 | O[C@@H]1[C@H](O)[C@@H]2C[C@@H]2[C@H]1n1cnc2c(NC(C3CCC3)C3CCC3)nc(Cl)nc21 [Compound 19] | – | – | – | 46 ± 6 | – | – | Ki [1]: 2.38 µM
3 | Nc1nc(Cl)nc2c1ncn2[C@H]1[C@H](O)[C@H](O)[C@]2(CCl)C[C@H]12 [Compound 22] | 0.00761 ± 0.00073 | 1.75 ± 0.29 | 0.253 ± 0.148 | – | – | – | Ki (sigma receptor σ1): 1.97 µM; Ki (sigma receptor σ2): 2.55 µM
4 | O[C@H]1[C@H](n2cnc3c(NC(C4CCC4)C4CCC4)nc(Cl)nc32)[C@H]2C[C@@]2(CSc2ccccc2F)[C@H]1O [Compound 28, (1S,2R,3S,4R,5S)-4-(2-Chloro-6-((dicyclobutylmethyl)amino)-9H-purin-9-yl)-1-(((2-fluorophenyl)thio)methyl)bicyclo[3.1.0]hexane-2,3-diol] | – | – | 9.75 ± 4.03 | 22 ± 5 | 1.46 | 0.334 | inhibition at 10 µM (hA1AR): 45 ± 4%; Ki (mA1AR): 2.49 µM; inhibition at 10 µM (mA2AAR): 20%; Ki (mA3AR): 7.44 µM; Ki (sigma receptor σ2): 0.583 µM
5 | CCOC(=O)[C@@]12C[C@@H]1[C@@H](n1cnc3c(NC(C4CC4)C4CC4)nc(Cl)nc31)[C@H](O)[C@@H]2O [Compound 32] | 0.36 ± 0.074 | – | 0.236 ± 0.041 | – | 0.054 | 0.015 | –
6 | CCOC(=O)[C@@]12C[C@@H]1[C@@H](n1cnc3c(NC(C4CC4)C4CC4)nc(Cl)nc31)[C@@H]1OC(C)(C)O[C@@H]12 [Compound 33] | – | – | – | 15 ± 2 | – | – | inhibition at 10 µM (hA1AR): 49 ± 9%; inhibition at 10 µM (hA3AR): 41 ± 6%
7 | CNC(=O)[C@@]12C[C@@H]1[C@@H](n1cnc3c(NC(C4CC4)C4CC4)nc(Cl)nc31)[C@H](O)[C@@H]2O [Compound 34] | 0.11 ± 0.014 | 4.32 ± 1.87 | 0.034 ± 0.011 | – | 0.749 | 0.023 | –
8 | O=C(NC1CC1)[C@@]12C[C@@H]1[C@@H](n1cnc3c(N[C@H]4C[C@H]5CC[C@@H]4C5)nc(Cl)nc31)[C@H](O)[C@@H]2O [Compound 36, (1S,2R,3S,4R,5S)-4-(6-(((1R,2S,4S)-bicyclo[2.2.1]heptan-2-yl)amino)-2-chloro-9H-purin-9-yl)-N-cyclopropyl-2,3-dihydroxybicyclo[3.1.0]hexane-1-carboxamide] | 0.00122 ± 5e-05 | 0.52 ± 0.119 | 0.059 ± 0.0178 | – | – | 1.57 | Ki (mA1AR): 0.00045 µM; Ki (mA2AAR; (m), values without % sign (Ki)): 2.65 µM; Ki (mA3AR): 0.0295 µM
9 | NC(=O)c1ncn([C@@H]2O[C@H](CO)[C@@H](O)[C@H]2O)n1 [Compound 38, ribavirin, reference compound] | – | – | – | 23 ± 6 | – | – | inhibition at 10 µM (hA3AR): 16 ± 5%
